{"source": "patent EP3156398A1", "about": "“AGONISTS OF THE CHEMOKINE RECEPTOR CXCR3” (Friedrich-Alexander-Universität Erlangen-Nürnberg, priority 2015, dated 2017)", "key": {"[1]": {"biological_target": "T1, human CXCR3 (isoform 1) (Homo sapiens, UniProt P49682)", "T1 construct": "expressed in transfected cells; host or cells: COS-7 cells, transient (pcDNA3.1+ vector, calcium phosphate)", "T1 sequence (P49682 1-368)": "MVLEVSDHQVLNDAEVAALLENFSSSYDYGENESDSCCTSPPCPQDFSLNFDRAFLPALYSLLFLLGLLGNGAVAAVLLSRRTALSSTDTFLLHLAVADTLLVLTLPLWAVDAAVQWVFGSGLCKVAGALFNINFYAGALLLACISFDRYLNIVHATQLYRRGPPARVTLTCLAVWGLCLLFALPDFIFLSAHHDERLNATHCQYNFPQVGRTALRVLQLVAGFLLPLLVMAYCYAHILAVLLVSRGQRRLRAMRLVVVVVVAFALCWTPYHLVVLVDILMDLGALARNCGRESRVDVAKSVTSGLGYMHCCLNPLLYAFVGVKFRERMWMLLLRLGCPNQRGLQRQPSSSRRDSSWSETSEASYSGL", "assay": "[125I]CXCL11 radioligand displacement assay", "assay_type": "binding", "protocol": "[^125I]CXCL11 radioligand displacement assay: Oxidative iodination. The CXCL11 protein (purchased from PeproTech as the mature form of isoform 1) was labeled in-house with the ^125I isotope (purchased from Perkin-Elmer, in 10 µM NaOH, pH 8-11) using the Chloramine-T method^36. CXCL11 was dissolved in 300 mM phosphate buffer, and 0.4 mCi ^125I was added to 0.6 nmol (10 µl) of the protein. 30 µl phosphate buffer supplemented with 30 mgl^-1 Chloramine-T was added slowly over a 5 min period while stirring, and the reaction was quenched by adding 400 µl H2O with 0.1% trifluoroacetic acid (TFA). The product was purified by reverse-phase HPLC, using a C18 column and a gradient from H2O with 0.1% TFA (buffer A) to acetonitrile with 0.1% TFA (buffer B). After allowing the passage of 8 mL flow-through at 20 % buffer B, CXCL11 is eluted by increasing buffer B to 50 % over a flow-volume of 40 mL, after which any possible remains of protein are eluted by further increasing buffer B to 80 % across 10 mL flow-through. The flow-through is collected in 1 mL aliquots, and the radioligand is identified in those aliquots by gamma radiation intensity, and verified with a preliminary competitive binding assay setup.\nCell culture and transfection,. Cos-7 cells expressing human CXCR3 (isoform 1) were used for binding assays. […]"}, "[2]": {"biological_target": "T2, CXCR3 (Homo sapiens, UniProt P49682)", "T2 construct": "expressed in transfected cells; host or cells: HEK293 / HEK293T cells, stably transfected; membrane preparations", "T2 sequence (P49682 1-368)": "T1 sequence (P49682 1-368)", "assay": "β-arrestin 2 recruitment with concomitant incubation of FAUC1036 and chemokine", "assay_type": "cell-based", "protocol": "β-arrestin 2 recruitment assay: The measurement of β-arrestin recruitment was performed utilizing the PathHunter assay purchased from DiscoveRx (DiscoveRx, Birmingham, U.K.) according to the manufacturer's protocol. HEK293 cells stably expressing β-gal enzyme acceptor were transiently transfected with the ProLink (PK1) tagged wildtype CXCR3 receptor using the TransIT-293 transfection reagent from Mirus (purchased from MoBiTec, Goettingen, Germany). The assay was carried out in 384-well plates containing 2000 cells in 20 µL. After incubation at 37°C (5% CO2, 95% relative humidity) overnight, various concentrations of test compounds or CXCL11 (prepared in PBS, pH 7.4, containing 0.20% BSA) were added and the incubation continued for 4 h. Detection mix was then added and incubated for further 60 min at room temperature. Chemiluminescence was determined with a microplate reader Clariostar (BMG labtech, Ortenberg, Germany).\nThe effect of the β-arrestin 2 biased allosteric agonist FAUC1036 on the CXCL11 and CXCL10-induced β-arrestin 2 recruitment was estimated in a series of experiments where the HEK293T cells expressing CXCR3 were concomitantly incubated with FAUC1036 and chemokines CXCL11 or CXCL10 (Figure 3). […] These observations imply that FAUC1036 behaves as a functional negative allosteric modulator (NAM) in the presence of endogenous agonists in the β-arrestin 2 pathway."}}}
{"smiles": "CC(C)(C)OC(=O)N[C@@H](CCCCNC(=O)[C@@H]1Cc2ccccc2CN1C(=O)CCC(=O)c1ccccc1)C(=O)NCC(c1ccccc1)c1ccccc1", "note": "[Compound 11, Tert-butyl ((S)-1-((2,2-diphenylethyl)amino)-1-oxo-6-((S)-2-(4-oxo-4-phenylbutanoyl)-1,2,3,4-tertahydroisoquinoline-3-carboxamido)hexan-2-yl)carbamate]", "values": [{"measurement": "effect on the binding affinity of CXCL11 on CXCR3", "setting": "[1]", "value": "no effect on the binding affinity of CXCL11 on CXCR3"}, {"measurement": "influence on the efficacy of CXCL10-induced β-arrestin 2 recruitment", "setting": "[2]; in the presence of CXCL10 (Figure 3B)", "value": "noticeable effect on the efficacy"}, {"measurement": "influence on the efficacy of CXCL11-induced β-arrestin 2 recruitment", "setting": "[2]; in the presence of CXCL11 (Figure 3A)", "value": "had not influence on the efficacy"}]}
